Type in all cases: cell-based
The test system of assay [1] is Escherichia coli ATCC 25922. The experiment in a line: microbe, parasite or virus in culture. To be noted: ATCC25922, QC 3, no acquired β-lactamase, TAN/XER fixed at 4 µg/mL, XER 8 µg/mL in MEM-XER, read-out: Minimal inhibitory concentration. As to the method:
(§1) To assess the inhibitory potency of XER, susceptibility testing was performed by broth microdilution method, determining the minimal inhibitory concentrations (MICs) of different antibiotics or antibiotic plus β-lactamase inhibitor combinations, including cefepime (FEP), imipenem (IPM), meropenem (MEM), and their combinations with XER (FEP-XER, IPM-XER, and MEM-XER). All data obtained with XER-based combinations were compared with data with TAN-based combinations, FEP-TAN, IPM-TAN, and MEM-TAN ([16]). FEP was purchased from Sigma-Aldrich (Saint-Louis, USA), whereas MEM was from HuiChem (Shanghai, China). […] MICs were determined in triplicate in cation-adjusted Mueller-Hinton (MH) broth (Bio-Rad, Marnes-la-Coquette, France) according to the CLSI guidelines ([53]). The results were interpreted according to the decrease in MIC value for the same antibiotic or combination of the corresponding recombinant strain producing the MBL enzyme. […] In a recent phase I clinical evaluation, XER was combined with cefiderocol. However, as this latter β-lactam substrate is known to be poorly hydrolyzed by IMP enzymes, it was not considered for the evaluation of XER inhibitory activity in this study. Instead, carbapenems were used as a substrate to evaluate the β-lactamase IMP activity in the presence or absence of XER and TAN, as it was deemed more specific for the IMP carbapenemase activity.

In assay [2] the test system is Escherichia coli NCTC 13353. The assay can be described thus: microbe, parasite or virus in culture. The following applies: NCTC13353, read-out: Minimal inhibitory concentration. How it is done:
as §1

The subject of the next assay is P. aeruginosa ATCC 27853. The assay can be described thus: microbe, parasite or virus in culture. To be noted: Pseudomonas aeruginosa, ATCC27853; QC 4; no acquired β-lactamase; TAN/XER fixed at 4 µg/mL, XER 8 µg/mL in MEM-XER; read-out: Minimal inhibitory concentration. How it is done:
as §1

The subject of assay [3] is Klebsiella pneumoniae ATCC BAA-2814. The assay can be described thus: microbe, parasite or virus in culture. The following applies: ATCCBAA2814, read-out: Minimal inhibitory concentration. How it is done: as §1
A further assay relates to E. coli IMP-2. The assay can be described thus: MIC broth microdilution, recombinant E. coli. To be noted: Escherichia coli, IMP2; IMP-2-like; TAN/XER fixed at 4 µg/mL, XER 8 µg/mL in MEM-XER; read-out: Minimal inhibitory concentration.
Another assay has as its system E. coli TOP10. The assay can be described thus: microbe, parasite or virus in culture. The following applies: Escherichia coli, no MBL, TAN/XER fixed at 4 µg/mL, XER 8 µg/mL in MEM-XER, read-out: Minimal inhibitory concentration.
From the text: (§2) Genes encoding different acquired IMP-like enzymes suspected to be resistant to XER (blaIMP-6, blaIMP-7, blaIMP-10, blaIMP-14, blaIMP-26, blaIMP-34, and blaIMP-59) were amplified by PCR, and corresponding amplicons were cloned into plasmid pUCP24 and expressed in E. coli TOP10. The following recombinant E. coli strains producing IMP-1, IMP-4, IMP-19, and NDM-1 were used from a previous study ([16]). […] For that purpose, a list of primers was designed and provided as Table S1. […] The nomenclature used in this study was according to the BBL sequence numbering ([52]).
as §1

The subject of assay [4] is Enterobacter hormaechei (cluster III) SMART 271. The assay can be described thus: microbe, parasite or virus in culture. The following applies: read-out: Minimal inhibitory concentration. How it is done: Most isolates and their respective β-lactamase content were characterized by whole-genome sequencing.
as §1

A further assay concerns E. coli IMP-6. The assay can be described thus: MIC broth microdilution, recombinant E. coli. To be noted: Escherichia coli, IMP6; IMP-1-like, S262G; TAN/XER fixed at 4 µg/mL, XER 8 µg/mL in MEM-XER; read-out: Minimal inhibitory concentration.
From the text: as §2, §1
Background: In broth dilution the organism is exposed to a series of concentrations in liquid medium.

Another assay concerns E. coli IMP-26. The assay can be described thus: MIC broth microdilution, recombinant E. coli. To be noted: Escherichia coli, IMP26; IMP-4 like, V67F; TAN/XER fixed at 4 µg/mL, XER 8 µg/mL in MEM-XER; read-out: Minimal inhibitory concentration.
From the text: as §2, §1

The next assay deals with E. coli IMP-1. The assay can be described thus: MIC broth microdilution, recombinant E. coli. The following applies: Escherichia coli, IMP1; IMP-1-like; TAN/XER fixed at 4 µg/mL, XER 8 µg/mL in MEM-XER; read-out: Minimal inhibitory concentration.
From the text: as §2, §1

Another assay concerns E. coli NDM-1* (S262G). The experiment in a line: MIC broth microdilution, recombinant E. coli. To be noted: Escherichia coli, TAN/XER fixed at 4 µg/mL, XER 8 µg/mL in MEM-XER, read-out: Minimal inhibitory concentration.
From the text: as §2, §1

The subject of the next assay is E. coli IMP-7. The experiment in a line: MIC broth microdilution, recombinant E. coli. The following applies: Escherichia coli, IMP7; IMP-7-like; TAN/XER fixed at 4 µg/mL, XER 8 µg/mL in MEM-XER; read-out: Minimal inhibitory concentration.
From the text: as §2, §1

The subject of another assay is E. coli IMP-34. The assay can be described thus: MIC broth microdilution, recombinant E. coli. The following applies: Escherichia coli, IMP34; IMP-1-like, E126G; TAN/XER fixed at 4 µg/mL, XER 8 µg/mL in MEM-XER; read-out: Minimal inhibitory concentration.
From the text: as §2, §1

The subject of assay [5] is E. coli IMP-14 Mutant 2 (H174N). The experiment in a line: MIC broth microdilution, recombinant E. coli. To be noted: Escherichia coli; IMP-14 H174N; TAN/XER fixed at 4 µg/mL, XER 8 µg/mL in MEM-XER; read-out: Minimal inhibitory concentration.
From the text: as §2, §1

For assay [6], the system named is E. coli IMP-14 Mutant 4 (D227Y). The assay can be described thus: MIC broth microdilution, recombinant E. coli. The following applies: Escherichia coli; IMP-14 D227Y; TAN/XER fixed at 4 µg/mL, XER 8 µg/mL in MEM-XER; read-out: Minimal inhibitory concentration.
From the text: as §2, §1

In assay [7] the test system is E. coli IMP-14 Mutant 3 (N178S). The assay can be described thus: MIC broth microdilution, recombinant E. coli. To be noted: Escherichia coli; IMP-14 N178S; TAN/XER fixed at 4 µg/mL, XER 8 µg/mL in MEM-XER; read-out: Minimal inhibitory concentration.
From the text: as §2, §1

Each structure is given as a SMILES string.

Take `C[C@@H](O)[C@H]1C(=O)N2C(C(=O)O)=C(SCCN=CN)C[C@H]12` [IPM, imipenem]: the MIC in [1] is at most 0.25 µg/mL; in [2], at most 0.25 µg/mL; in the assay with P. aeruginosa ATCC 27853 it was 1 µg/mL; in [3], 16 µg/mL; with E. coli IMP-2, 0.5 µg/mL; with E. coli TOP10, at most 0.25 µg/mL. In addition, the MIC was 0.5 µg/mL in [4]; at most 0.25 µg/mL in the assay with E. coli IMP-6; 8 µg/mL in the assay with E. coli IMP-26; 4 µg/mL in the assay with E. coli IMP-1; 0.25 µg/mL in the assay with E. coli NDM-1* (S262G); 0.25 µg/mL in the assay with E. coli IMP-7. Also, the MIC in the assay with E. coli IMP-34 was 0.5 µg/mL; in [5], 2 µg/mL; in assay [6], 8 µg/mL; in [7] it was 2 µg/mL.
For `CO/N=C(\C(=O)N[C@@H]1C(=O)N2C(C(=O)[O-])=C(C[N+]3(C)CCCC3)CS[C@H]12)c1csc(N)n1` [FEP, cefepime], the MIC is at most 0.25 µg/mL in assay [1]; 256 µg/mL in assay [2]; 1 µg/mL in the assay with P. aeruginosa ATCC 27853; over 256 µg/mL in [3]; 8 µg/mL in the assay with E. coli IMP-2; at most 0.25 µg/mL in the assay on E. coli TOP10. Moreover, the MIC in the assay on E. coli IMP-6 worked out at 4 µg/mL; with E. coli IMP-26, 32 µg/mL; with E. coli IMP-1 it was 32 µg/mL; with E. coli NDM-1* (S262G) it was 1 µg/mL; in assay [5], 64 µg/mL; in [6], 128 µg/mL. Also, the MIC in assay [7] came to 128 µg/mL.
As for `C[C@@H](O)[C@H]1C(=O)N2C(C(=O)O)=C(S[C@@H]3CN[C@H](C(=O)N(C)C)C3)[C@H](C)[C@H]12` [MEM, meropenem], the MIC was at most 0.25 µg/mL in assay [1]; at most 0.25 µg/mL in assay [2]; 0.5 µg/mL with P. aeruginosa ATCC 27853; 64 µg/mL in assay [3]; 1 µg/mL in the assay with E. coli IMP-2; at most 0.25 µg/mL with E. coli TOP10. Moreover, the MIC is 0.5 µg/mL in [4]; 64 µg/mL in the assay with E. coli IMP-6; 128 µg/mL in the assay with E. coli IMP-26; 8 µg/mL with E. coli IMP-1; 32 µg/mL in the assay on E. coli NDM-1* (S262G); 2 µg/mL with E. coli IMP-7. For the same compound, the MIC in the assay on E. coli IMP-34 is 2 µg/mL; in assay [5], 4 µg/mL; in assay [6], 8 µg/mL; in [7] it was 8 µg/mL.

The values above are taken from publication PMC12217461 (Antimicrobial Agents and Chemotherapy, 2025).
